Columns and labels:
[1] = test system: patient-derived CD4+ T cells; assay: Example 2: viability of patient-derived CD4+ T cells (Zombie Violet, flow cytometry); assay type: cell-based, human; settings: 48 h incubation
Procedure: Following treatment with Tideglusib, the CD4^+ T cells were spun down and stained with the cell-death marker Zombie Violet (BioLegend). Briefly, cells were harvested 48 hours after LRA treatment, incubated with the Zombie dye for 15 minutes at room temperature, than washed and fixed with 1% PFA for 30 minutes; then washed again and analyzed via flow cytometer. Percentage of live (Zombie negative (−)) T Cells (CD3+) was normalized to the DMSO-treated control (DMSO or “untreated”=1).

[2] = test system: patient-derived CD4+ T cells; assay: Example 3: expression of activation markers CD69 and CD25 in patient-derived CD4+ T cells; assay type: cell-based, human; settings: 48 hours; anti-CD3/CD28 beads = 100%
Procedure: Following treatment with Tideglusib, the CD4^+ T cells were spun down and stained with antibodies for the activation markers CD69 and CD25. Briefly, cells were harvested 48 hours after Tideglusib treatment, incubated with the antibodies for 15 minutes at room temperature, than washed and fixed with 1% PFA for 30 minutes; then washed again and analyzed via flow cytometer.

[3] = test system: latent HIV-1 in GALT cultures from HIV-positive donors on suppressive ART; assay: Example 5: latency reversion in gut-associated lymphoid tissue (GALT) cultures, ddPCR; assay type: cell-based
Procedure: PBMCs and CD4^+ T cells from HIV-positive donors were cultured and treated in the presence of 5 μM saquinavir. For gut-associated lymphoid tissue (GALT) cells, to remove the epithelium and epithelial cells, 30 tissue biopsy tissue pieces were incubated in pre-warmed buffer containing 10 mM DTT, 5 mM EDTA, 10 mM HEPES and 5% FBS for 20 minutes at 37° C. under continuous rotation, vortexed and the supernatant aspirated. Tissue pieces were then incubated for a second time in the same pre-warmed buffer for a further 20 minutes at 37° C. under continuous rotation. The sample was again vortexed, and then rinsed for 20 minutes at 37° C. under continuous rotation with RMPI, 10 mM HEPES and 5% FBS. To then isolate lymphocytes from the lamina propria, a second, pre-warmed buffer containing RPMI, 10 mM HEPES, 7.5 µg/ml DNAse and 5% FBS was applied to the tissue pieces, and these were again incubated for 20 minutes at 37° C. under continuous rotation. […]
5 million resting CD4^+ T lymphocytes were plated and either left unstimulated (media alone plus DMSO), stimulated with anti-CD3/CD28 coated or incubated with LRAs for 48 hours. […] Subsequently, ddPCR was applied to quantify pre-amplified cDNA. […] Finally, samples were amplified on a BioRad C1000 Thermocycler and analyzed using a BioRad QX100 ddPCR Reader. […]

CD4+ T cells [4] = assay: Example 5: cytokines release assay (V-PLEX pro-inflammatory panel); assay type: cell-based, human; settings: 48 hours; culture supernatant of CD4+ T cells
Procedure: Supernatant was collected from the treated cell cultures described above and stored at −80° C. for later analysis. Supernatant cytokine levels were determined using a V-PLEX Proinflammatory Panel 1 (human) Kit (#K15049D-1) and a V-PLEX IL-17A Gen. B (human) (#K151WMD) from Meso Scale Discovery, following the manufacturer's protocol. The assay was done on undiluted supernatant samples in order to increase the sensitivity of the assay.

NF-κB (p65) = assay: Example 5: NF-κB (p65) binding with target DNA sequences, ELISA; assay type: cell-based, human; settings: 1 μM
Procedure: To determine the specific NF-κB p65 DNA binding activity of treated CD4^+ T cells, an aliquot of the same nuclear extracts used for the p65/TBP western blots were submitted to the Transcription Factor Assay kit (Abcam, catalogue no. ab133112). Following the manufactures instructions sequentially, nuclear extracts were incubated in the TFA 96 well plate coated with double strand DNA NF-κB oligos. The wells were washed then incubated with primary anti-p65 antibody that is then detected by incubation with HRP conjugated secondary antibody. Developing reagents are added and absorbance is read at 450 nm. The level of absorbance indicates the DNA binding activity. For each donor experiment, binding specificity controls include a NF-κB competitor dsDNA control well and a non-specific binding control well. The assay was performed on 3 different donor samples.

CD4+ T cells [5] = assay: Example 5: basal and compensatory glycolysis, Seahorse glycolytic rate assay; assay type: cell-based, human; settings: 1 μM; 24 hours
Procedure: ECAR was determined using the Seahorse SF Glycolytic Rate Assay Kit (Agilent, 103344-100) and a Seahorse XF96 Extracellular Flux Analyzer (Seahorse Bioscience). Resting (2×10^5 per well) were seeded onto Cell-Tak-coated wells (354240; Corning) in buffered Seahorse XF RPMI medium (Agilent, 103576-100) supplemented with 10 mM glucose, 2 mM L-glutamine, 1 mM pyruvate and 5 mM HEPES (pH 7.4). Measurements were obtained under basal conditions and after adding 0.5 μM rotenone/antimycin A (103015-100; Seahorse Bioscience), and 2-deoxy-d-glucose (2-DG) at a final well concentration of 50 mM (Agilent Technologies). Basal glycolysis and Proton Efflux Rate (PER) were calculated according to. Lactate measurements were detected using the Cayman L-Lactate Assay Kit (Cayman Chemical, 70010) In brief, 24 hours post treatment, supernatant from 200.000 primary resting and activated CD4^+ T cells was harvested and measured according to the manufacturer's recommendation.

[6] = also in the brain; cited from earlier work
patient CD4+ T cells = assay: Example 7: viability of patient CD4+ T cells, Cell-titer blue; settings: 48 h

SMILES: O=c1sn(-c2cccc3ccccc23)c(=O)n1Cc1ccccc1 [Tideglusib, 4-benzyl-2-(naphthalen-1-yl)-1,2,4-thiadiazolidine-3,5-dione]
- percentage of viable CD4+ T cells vs untreated control [1]: Substantially all of the cells remained viable
- activation markers CD69 and CD25 on the surface of CD4+ T cells [2]: not up-regulated
- virus-associated mRNA in culture supernatant, median value ([3]; 1 μM, 24 hours, relative to untreated control): 20.69 fold
- virus release vs untreated control ([3]; GALT cultures): over 20 fold
- production and release of pro-inflammatory cytokines (CD4+ T cells [4]): does not induce T cell activation or cytokine production
- p65/DNA binding (NF-κB (p65)): time-dependent increase
- basal glycolysis, mean value (CD4+ T cells [5]): 17.43 pmol/min
- compensatory glycolysis, response to Rot/AA (CD4+ T cells [5]): did not result in an increase
- tissue-permeability [6]: high tissue-permeability also in the brain
- toxicity based on cell-titer blue testing (patient CD4+ T cells): Neither tideglusib nor SB216763 induced toxicity
